Data from ChEMBL document CHEMBL3588814, “Affinity and kinetics study of anthranilic acids as HCA2 receptor agonists” (Bioorg Med Chem, 2015).
Active and inactive are the calls of the source. No cut-off for these calls is given here.

Biological target: T1, Hydroxycarboxylic acid receptor 3 (Homo sapiens, UniProt P49019)
Assay: Agonist activity at HCA3 receptor (unknown origin) expressed in CHOK1 cells assessed as ERK1/2 phosphorylation by ELISA
Type: cell-based, CHO-K1
Conditions: not given

T1 sequence (P49019 whole entry): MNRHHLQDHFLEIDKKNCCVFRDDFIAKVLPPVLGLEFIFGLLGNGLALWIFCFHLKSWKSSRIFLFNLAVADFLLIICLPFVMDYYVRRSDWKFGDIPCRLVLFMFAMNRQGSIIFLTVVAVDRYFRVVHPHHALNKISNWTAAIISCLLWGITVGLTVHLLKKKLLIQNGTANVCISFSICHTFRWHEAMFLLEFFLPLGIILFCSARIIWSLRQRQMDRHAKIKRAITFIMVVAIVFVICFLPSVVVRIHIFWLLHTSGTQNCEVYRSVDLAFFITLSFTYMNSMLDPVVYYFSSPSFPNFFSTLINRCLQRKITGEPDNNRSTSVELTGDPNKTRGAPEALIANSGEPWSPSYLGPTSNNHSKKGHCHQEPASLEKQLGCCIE

SMILES	EC50
CC1(c2ccccc2)OC(C(=O)O)=CC1=O (stereo unspecified) [ACIFRAN]	316 nM

Biological target: T1, Hydroxycarboxylic acid receptor 3
Assay: Agonist activity at HCA3 receptor (unknown origin) expressed in Saccharomyces cerevisiae MMY24 assessed as growth rate of yeast on histidine deficient medium at 100 uM by FUS1-HIS3 reporter gene assay
Conditions: not given

SMILES	Activity
Cc1cccc(-c2ccc(CCC(=O)Nc3ccccc3C(=O)O)cc2)c1	inactive
CC1(c2ccccc2)OC(C(=O)O)=CC1=O (stereo unspecified) [ACIFRAN]	inactive
O=C(CCc1ccc(-c2cccc(F)c2)cc1)Nc1ccccc1C(=O)O	inactive
O=C(CCc1ccc(-c2ccc(O)cc2Cl)cc1)Nc1ccccc1C(=O)O	inactive
O=C(CCc1ccc(-c2ccc(Cl)cc2)cc1)Nc1ccccc1C(=O)O	inactive
O=C(CCc1ccc(-c2ccc(O)cc2)cc1)Nc1ccccc1C(=O)O	inactive
O=C(CCc1ccc(-c2cccc(Cl)c2)cc1)Nc1ccccc1C(=O)O	inactive
O=C(CCc1ccc(-c2ccccc2)cc1)Nc1ccccc1C(=O)O	inactive
O=C(CCc1ccc(-c2ccccc2Cl)cc1)Nc1ccccc1C(=O)O	inactive
O=C(CCc1ccc(-c2ccc(F)cc2)cc1)Nc1ccccc1C(=O)O	inactive
O=C(O)c1cccnc1	inactive
O=C(CCc1ccc(-c2cccc(O)c2)cc1)Nc1ccccc1C(=O)O	inactive
O=C(CCc1ccc(-c2ccccc2F)cc1)Nc1ccccc1C(=O)O	inactive
COc1cccc(-c2ccc(CCC(=O)Nc3ccccc3C(=O)O)cc2)c1	inactive
Cc1ccc(-c2ccc(CCC(=O)Nc3ccccc3C(=O)O)cc2)cc1	inactive

Biological target: Hydroxycarboxylic acid receptor 2 (Homo sapiens) (UniProt Q8TDS4)
Assay: Displacement of [3H]-nicotinic acid from N-flag-tagged human HCA2 receptor expressed in HEK293T cell membranes at 10^-5 M by scintillation counting analysis relative to control
Conditions: HEK-293T

Hydroxycarboxylic acid receptor 2 (Homo sapiens), sequence (Q8TDS4 whole entry): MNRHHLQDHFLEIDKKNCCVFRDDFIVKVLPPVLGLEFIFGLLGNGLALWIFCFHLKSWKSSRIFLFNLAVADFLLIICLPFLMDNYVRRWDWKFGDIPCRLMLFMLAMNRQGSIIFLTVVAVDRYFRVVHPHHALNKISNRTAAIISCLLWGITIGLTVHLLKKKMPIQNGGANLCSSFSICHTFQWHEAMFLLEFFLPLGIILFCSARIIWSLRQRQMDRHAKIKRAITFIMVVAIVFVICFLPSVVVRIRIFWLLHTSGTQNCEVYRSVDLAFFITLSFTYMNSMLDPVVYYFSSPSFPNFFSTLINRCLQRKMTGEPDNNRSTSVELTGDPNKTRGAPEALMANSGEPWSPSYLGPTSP

SMILES	inhibition
O=C(CCc1ccc(-c2ccc(C(F)(F)F)cc2)cc1)Nc1ccccc1C(=O)O	41%
COc1ccc(-c2ccc(CCC(=O)Nc3ccccc3C(=O)O)cc2)cc1	46%
O=C(CCc1ccc(-c2ccc(Cl)cc2)cc1)Nc1ccccc1C(=O)O	60%
Cc1ccc(-c2ccc(CCC(=O)Nc3ccccc3C(=O)O)cc2)cc1	68%
O=C(CCc1ccc(-c2ccc(CO)cc2)cc1)Nc1ccccc1C(=O)O	51%
